# Experimental data as given in ChEMBL document CHEMBL1136903, “Spiroimidazolidinone NPC1L1 inhibitors. 1: Discovery by 3D-similarity-based virtual screening” (Bioorg Med Chem Lett, 2009).
# How the values were obtained:
# [1] = Displacement of [35S](2S,3S,4S,5R,6S)-6-(4-((2S,3R)-3-((S)-3-(4-fluorophenyl)-3-hydroxypropyl)-1-(4-(3-(methylsulfonamido)prop-1-ynyl)phenyl)-4-oxoazetidin-2-yl)phenoxy)-3,4,5-trihydroxytetrahydro-2H-pyran-2-carboxylic acid from NPC1L1 in pig enterocyte brush border membrane; set-up: species or system Sus scrofa
# [2] = biological target: T1, Niemann-Pick C1-like 1 protein (Canis lupus familiaris, UniProt A0MJA4); assay: Displacement of [35S](2S,3S,4S,5R,6S)-6-(4-((2S,3R)-3-((S)-3-(4-fluorophenyl)-3-hydroxypropyl)-1-(4-(3-(methylsulfonamido)prop-1-ynyl)phenyl)-4-oxoazetidin-2-yl)phenoxy)-3,4,5-trihydroxytetrahydro-2H-pyran-2-carboxylic acid from NPC1L1 in dog enterocyte brush border membrane
# T1 sequence (A0MJA4 whole entry): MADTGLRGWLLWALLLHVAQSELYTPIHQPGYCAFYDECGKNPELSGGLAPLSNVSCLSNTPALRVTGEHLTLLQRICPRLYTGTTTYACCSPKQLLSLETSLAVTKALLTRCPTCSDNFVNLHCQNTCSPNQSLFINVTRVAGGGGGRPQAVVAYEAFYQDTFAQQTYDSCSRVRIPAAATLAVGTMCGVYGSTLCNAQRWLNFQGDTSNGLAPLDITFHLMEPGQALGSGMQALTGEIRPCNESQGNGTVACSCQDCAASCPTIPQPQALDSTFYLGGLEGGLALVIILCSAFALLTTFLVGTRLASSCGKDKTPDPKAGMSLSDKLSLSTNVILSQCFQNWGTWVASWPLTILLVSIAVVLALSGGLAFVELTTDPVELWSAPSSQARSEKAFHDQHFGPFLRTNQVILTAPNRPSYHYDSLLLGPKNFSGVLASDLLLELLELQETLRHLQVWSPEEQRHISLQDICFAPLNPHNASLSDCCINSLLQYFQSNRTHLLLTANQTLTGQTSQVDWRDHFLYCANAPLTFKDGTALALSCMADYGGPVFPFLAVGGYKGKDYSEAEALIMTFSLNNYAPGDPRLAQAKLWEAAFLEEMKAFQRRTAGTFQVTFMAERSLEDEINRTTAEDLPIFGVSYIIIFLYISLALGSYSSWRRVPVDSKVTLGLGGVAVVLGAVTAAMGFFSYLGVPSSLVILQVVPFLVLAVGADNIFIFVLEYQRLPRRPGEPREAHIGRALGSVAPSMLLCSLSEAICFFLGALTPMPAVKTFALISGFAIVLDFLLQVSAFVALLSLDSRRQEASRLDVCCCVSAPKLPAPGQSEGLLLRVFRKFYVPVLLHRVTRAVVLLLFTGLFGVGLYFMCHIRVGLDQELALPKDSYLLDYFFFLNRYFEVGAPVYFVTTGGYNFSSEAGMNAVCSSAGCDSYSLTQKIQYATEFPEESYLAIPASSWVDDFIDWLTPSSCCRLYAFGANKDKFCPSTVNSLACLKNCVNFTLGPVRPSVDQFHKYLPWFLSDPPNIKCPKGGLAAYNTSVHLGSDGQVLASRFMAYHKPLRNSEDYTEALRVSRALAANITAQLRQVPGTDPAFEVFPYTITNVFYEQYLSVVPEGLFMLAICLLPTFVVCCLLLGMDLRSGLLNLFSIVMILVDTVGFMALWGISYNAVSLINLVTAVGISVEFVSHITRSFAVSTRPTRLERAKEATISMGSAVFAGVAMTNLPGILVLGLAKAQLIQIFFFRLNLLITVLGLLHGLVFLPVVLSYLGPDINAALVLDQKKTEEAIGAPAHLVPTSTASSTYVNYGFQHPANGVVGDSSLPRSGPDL
# [3] = Displacement of [35S](2S,3S,4S,5R,6S)-6-(4-((2S,3R)-3-((S)-3-(4-fluorophenyl)-3-hydroxypropyl)-1-(4-(3-(methylsulfonamido)prop-1-ynyl)phenyl)-4-oxoazetidin-2-yl)phenoxy)-3,4,5-trihydroxytetrahydro-2H-pyran-2-carboxylic acid from NPC1L1 in guinea pig enterocyte brush border membrane; set-up: species or system Cavia porcellus
IC50 [1] [µM],IC50 [2] [µM],IC50 [3] [µM],Compound
0.013,0.008,0.071,CS(=O)(=O)NCC#CN1C(=O)[C@H](CC[C@H](O)c2ccc(F)cc2)[C@H]1c1ccc(O[C@@H]2O[C@H](C(=O)O)[C@@H](O)[C@H](O)[C@H]2O)cc1
> 500,> 500,118,O=C([C@@H]1C[C@@H](c2ccccc2)CN1C(=O)c1ccccc1)N1CCC2(C=Cc3ccccc32)CC1
0.32,0.06,3.3,O=C(O)[C@H]1O[C@@H](Oc2ccc([C@@H]3[C@@H](CC[C@H](O)c4ccc(F)cc4)C(=O)N3c3ccc(F)cc3)cc2)[C@H](O)[C@@H](O)[C@@H]1O
> 500,170,470,CC(C)(C)c1ccc(C(=O)N2CCC3(CC2)C(=O)N(CC(=O)N2CCCCC2)CN3c2ccccc2)cc1
